According to patent US20120316203A1, “Compositions and Methods for Inhibition of Cancers” (THE OHIO STATE UNIVERSITY RESEARCH FOUNDATION, priority 2009, published 2012):

Legend:
[1] = Body weight and diet consumption of tumor-bearing animals; format: in vivo; settings: 25, 50, and 100 ppm in feed, 5 weeks
Experimental: Cultured A2780 cancer cells (2×10^6 cells in […] of PBS) were s.c. injected into the back of 6-week-old BALB/c nude mice from the National Cancer Institute. Five to 7 days later, when the tumors reached 3 to 5 mm in diameter, the mice were divided (n=9/group) in a manner to equalize the mean tumor diameter among the groups. The control group was given a normal diet (no treatment), whereas the experimental groups were treated using the DAP compounds mixed with the animal feed (Harlan Teklad) at three different levels (25, 50, and 100 ppm). The doses were chosen based on an initial dose-response study optimized to produce an observable effect on tumor growth. The size of the tumor was measured twice per week using a digital Vernier caliper. The tumor volume was determined from the orthogonal dimensions (d1, d2, d3) using the formula (d1×d2×d3)×π/6. Thirty five days after the beginning of HO-3867 treatment, the mice were sacrificed and the tumors were resected. The tumor tissues were then subjected to immunoblot analysis.
The mice were treated with HO-3867 and the tumor size as measured twice weekly for 5 weeks. […] We also measured the body weight and diet consumption of tumor-bearing animals.

[2] = system: pSTAT3 (Tyr705 and Ser727), cleaved caspase-3 and PARP in A2780, A549, HepG2, MCF-7, HCT-116 cells; assay: Western blot of STAT3 signaling and apoptotic markers in cancer cells; format: cell-based, human; settings: 10 μM, 24 h
Experimental: Cells were grown in RPMI 1640 medium and treated with DMSO (control) or HO-3867 ([…]). Equal volumes of DMSO (0.1% v/v) were present in both groups. After treatment, cell lysates were prepared in nondenaturing lysis buffer (10 mM Tris-HCl (pH 7.4), 150 mM NaCl, 1% Triton X-100, 1 mM EDTA, 1 mM EGTA, 0.3 mM phenylmethylsulfonyl fluoride, 0.2-mM sodium orthovanadate, 0.5% NP-40, 1 lag/ml aprotinin, and 1 lag/ml leupeptin). Cell lysates were centrifuged at 10,000 RPM for 20 min at 4° C., and the supernatant was separated. The protein concentration in the lysates was determined using a Pierce detergent-compatible protein assay kit. For Western blotting, 25 to 50 lag of protein lysate per sample was denatured in 2× sample buffer and subjected to SDS-PAGE on a 10 or 12% Tris-glycine gel. The separated proteins were transferred to a PVDF membrane and then the membrane was blocked with 5% nonfat milk powder (w/v) in 10 mM Tris, 100 mM NaCl, 0.1% Tween 20 for 1 h at room temperature or overnight at 4° C. The membranes were incubated with the primary antibodies described above. The bound antibodies were detected with horseradish peroxidase (HRP)-labeled sheep anti-mouse IgG or HRP-labeled donkey anti-rabbit IgG (Amersham) using an enhanced chemiluminescence detection system (ECL Advanced Kit). Protein expression was determined using Image Gauge version 3.45.

[3] = system: A2780R, PA-1, SKOV3, OV4, and OVCAR3 human ovarian cancer cell lines; assay: Cell viability by MTT assay, other ovarian cancer cell lines; format: cell-based; settings: 10 μmol/L; 24 h
Experimental: Cell viability was determined by a colorimetric assay using MTT. In the mitochondria of living cells, yellow MTT undergoes a reductive conversion to formazan, producing a purple color. Cells, grown to […] confluence in 75-mm flasks, were trypsinized, counted, seeded in 96-well plates with an average population of 7,000 cells per well, incubated overnight, and then treated with curcumin, H-4073, or HO-3867 for 24 hours. All experiments were done using eight replicates and, repeated at least thrice.

[4] = system: HER1, SREBP1, ERK1/2, MMP-2 and VEGF in A2780 and SKOV3 cells; assay: Blotting of FAS/FAK-regulating proteins; format: cell-based, human; settings: 10 μM, 24 h
Experimental: Cells in RPMI 1640 medium were treated with DMSO (control) or HO-3867 (10 μM) for 24 h. Equal volumes of DMSO (0.1% v/v) were present in each treatment. Following treatment, the cell lysates were prepared in nondenaturing lysis buffer containing 10-mM Tris-HCl (pH 7.4), 150-mM NaCl, 1% Triton X-100, 1-mM EDTA, 1-mM EGTA, 0.3-mM phenylmethylsulfonyl fluoride, 0.2-mM sodium orthovanadate, 0.5% NP40, 1-μg/ml aprotinin, and 1-μg/ml leupetin. The lysates were centrifuged at 10,000×g for 20 min at 4° C., and the supernatant was separated. The protein concentration in the lysates was determined using a Pierce detergent-compatible protein assay kit. For Western blotting, 25 to 50 μg of protein lysate per sample was denatured in 2×SDS-PAGE sample buffer and subjected to SDS-PAGE on a 10% tris-glycine gel. The separated proteins were transferred to a PVDF membrane and blocked with 5% nonfat milk powder (w/v) in TBST (10-mM Tris, 10-mM NaCl, 0.1% Tween 20) for 1 h at room temperature or overnight at 4° C. The membranes were then incubated with the primary antibodies. The bound antibodies were detected with horseradish peroxidase (HRP)-labeled sheep anti-mouse IgG or HRP-labeled donkey anti-rabbit IgG using an enhanced chemiluminescence detection system (ECL Advanced kit). Protein expressions were determined using Image Gauge version 3.45.

[5] = system: USP2a, ubiquitinated FAS and FAK in A2780 and SKOV3 cells; assay: Ubiquitination of FAS/FAK and USP2a level; format: cell-based, human
Experimental: FIG. 15: HO-3867 downregulates FAS and FAK levels via proteasome pathways. To catch any ubiquitinated proteins in the cell lysates, agarose beads coated with domains having affinity to ubiquitin were incubated in the lysates at 4° C. for 2 hours. After washing the beads, the ubiquitinated proteins were subjected to immunoblot for FAS and FAK and blotted by the ubiquitin antibody. A predominant ubiquitination of FAS and FAK is seen in the HO-3867-treated A2780 and SKOV3 cells under proteasomal inhibition using MG 132 (50 μM).
The intracellular amount of rapid-turnover proteins, such as FAS and FAK, is tightly regulated by the ubiquitin-dependent proteolytic pathway. The fast and significant decrease in the FAS and FAK expressions observed in the HO-3867-treated cells prompted us to check any involvement of ubiquitin-dependent degradation mechanism.

Which results are given for CC1(C)C=C(CN2C/C(=C\c3ccc(F)cc3)C(=O)/C(=C/c3ccc(F)cc3)C2)C(C)(C)N1O [HO-3867, 1-[(1-oxyl-2,2,5,5-tetramethyl-2,5-dihydro-1H-pyrrol-3-yl)methyl]-(3E,5E)-3,5-bis(4-fluorobenzylidene)piperidin-4-one]?
gross signs of toxicity (body weight, diet consumption) [1]: did not show any gross signs of toxicity; Tyr705 and Ser727 pSTAT3 levels in cancer cells [2]: significantly attenuated; activated caspase-3 and PARP in cancer cells [2]: significant elevation; cytotoxicity in other human ovarian cancer cell lines [3]: equally and significantly toxic; pHER2, pERK1/2, SREBP1, MMP-2, and VEGF [4]: inhibited; USP2a level [5]: clearly downregulated; polyubiquitination on FAS and FAK ([5]; co-incubation with MG-132): enhanced polyubiquitination
